Measurements: patent US20140378416A1, “SILYL-CONTAINING HETEROCYCLIC COMPOUNDS AND METHODS OF USE THEREOF FOR THE TREATMENT OF VIRAL DISEASES” (priority 2011, published 2014)
Where two headings read alike, the source gives them in different places.

Assays:
HCV replicon 2b = assay: Cell-based HCV replicon assay (TaqMan), genotype 2b replicon; settings: EC90 = concentration for ΔCT=3.2 over baseline
Method: (§1) Measurement of inhibition by compounds of the present invention was performed using the HCV replicon system. Several different replicons encoding different HCV genotypes or mutations were used. In addition, potency measurements were made using different formats of the replicon assay, including different ways of measurements and different plating formats. See Jan M. Vrolijk et al., A replicons-based bioassay for the measurement of interferons in patients with chronic hepatitis C, 110 J. VIROLOGICAL METHODS 201 (2003); Steven S. Carroll et al., Inhibition of Hepatitis C Virus RNA Replication by 2′-Modified Nucleoside Analogs, 278(14) J. BIOLOGICAL CHEMISTRY 11979 (2003). However, the underlying principles are common to all of these determinations, and are outlined below.
(§2) Compounds of the present invention were assayed for cell-based anti-HCV activity using the following protocol. Replicon cells were seeded at 5000 cells/well in 96-well collagen I-coated Nunc plates in the presence of the test compound. Various concentrations of test compound, typically in 10 serial 2-fold dilutions, were added to the assay mixture, with the starting concentration ranging from 250 μM to 1 μM. The final concentration of DMSO was 0.5%, fetal bovine serum was 5%, in the assay media. Cells were harvested on day 3 by the addition of 1× cell lysis buffer (Ambion cat #8721). The replicon RNA level was measured using real time PCR (TaqMan® assay). The amplicon was located in 5B. The PCR primers were: 5B.2F, ATGGACAGGCGCCCTGA (SEQ. ID NO. 1); 5B.2R, […] (SEQ. ID NO. 2); the probe sequence was FAM-labeled CACGCCATGCGCTGCGG (SEQ. ID NO. 3). GAPDH RNA was used as endogenous control and was amplified in the same reaction as NS5B (multiplex PCR) using primers and VIC-labeled probe recommended by the manufacturer (PE Applied Biosystem). The real-time […] reactions were run on ABI PRISM 7900HT Sequence Detection System using the following program: 48° C. for 30 minutes, 95° C. for 10 minutes, 40 cycles of 95° C. for 15 sec, 60° C. for 1 minute. The ACT values (CT5B-CTGAPDH) were plotted against the concentration of test compound and fitted to the sigmoid dose-response model using XLfit4 (MDL). EC50 was defined as the concentration of inhibitor necessary to achieve ΔCT=1 over the projected baseline; EC90 the concentration necessary to achieve ΔCT=3.2 over the baseline. Alternatively, to quantitate the absolute amount of replicon RNA, a standard curve was established by including serially diluted T7 transcripts of replicon RNA in the Taqman assay. All TaqMan® reagents were from PE Applied Biosystems. Such an assay procedure was described in detail in e.g. Malcolm et al., Antimicrobial Agents and Chemotherapy 50: 1013-1020 (2006).
(§3) HCV replicon EC50 assay data for various replicons and mutants was calculated for selected compounds of the present invention using this method and is provided in the tables above herein.

HCV replicon 1a = assay: Cell-based HCV replicon assay (TaqMan), genotype 1a replicon; settings: HCV 1a replicon cells, replicon RNA by TaqMan on day 3, EC90 = concentration for ΔCT=3.2 over baseline
Method: as §1, §2, §3

HCV replicon 1a Y93H = assay: Cell-based HCV replicon assay (TaqMan), genotype 1a Y93H mutant replicon; settings: EC90 = concentration for ΔCT=3.2 over baseline
Method: as §1, §2, §3

HCV replicon 1b = assay: Cell-based HCV replicon assay (TaqMan), genotype 1b replicon; settings: HCV 1b replicon cells, replicon RNA by TaqMan on day 3, EC90 = concentration for ΔCT=3.2 over baseline
Method: as §1, §2, §3

[1] = Hepatitis C virus, 72 h, read-out: 2b EC90, HCV 2b replicon cells, replicon RNA by TaqMan on day 3
[2] = Hepatitis C virus, 72 h, read-out: 1a Y93H EC90, HCV 1a Y93H mutant replicon cells, replicon RNA by TaqMan on day 3

| Structure (SMILES) | EC90 (HCV replicon 2b; [1]) | EC90 (HCV replicon 1a; Hepatitis C virus, 72 h) | EC90 (HCV replicon 1a Y93H; [2]) | EC90 (HCV replicon 1b; Hepatitis C virus, 72 h) | EC90 (HCV replicon 2b; read-out: 2b EC90, HCV 2b replicon cells, replicon RNA by TaqMan on day 3) | EC90 (HCV replicon 1a) | EC90 (HCV replicon 1a Y93H; read-out: 1a Y93H EC90, HCV 1a Y93H mutant replicon cells, replicon RNA by TaqMan on day 3) | EC90 (HCV replicon 1b) |
| --- | --- | --- | --- | --- | --- | --- | --- | --- |
| COC(=O)N[C@H](C(=O)N1CCC[C@H]1c1ncc(-c2ccc(-c3ccc(-c4cnc([C@@H]5C[Si](C)(C)CN5C(=O)[C@@H](NC(=O)OC)C5CCCC5)[nH]4)cc3)cc2)[nH]1)C1CCCC1 [Compound 24] | 382 nM | 2.91 nM | 1000 nM | 17.3 nM | – | – | – | – |
| CC[C@H](NC(=O)OC)C(=O)N1CCC[C@H]1c1ncc(-c2ccc(-c3ccc(-c4cnc([C@@H]5C[Si](C)(C)CN5C(=O)[C@H](CC)NC(=O)OC)[nH]4)cc3)cc2)[nH]1 [Compound 12] | 535 nM | 0.187 nM | 694 nM | 18.1 nM | – | – | – | – |
| COC(=O)N[C@H](C(=O)N1CCC[C@H]1c1ncc(-c2ccc(-c3ccc(-c4cnc([C@@H]5C[Si](C)(C)CN5C(=O)[C@@H](NC(=O)OC)C5CCCCC5)[nH]4)cc3)cc2)[nH]1)C1CCCCC1 [Compound 34] | 648 nM | 2.5 nM | > 1000 nM | 0.04 nM | – | – | – | – |
| COC(=O)N[C@H](C(=O)N1C[C@H](F)C[C@H]1c1ncc(-c2ccc(C#Cc3ccc(-c4cnc([C@@H]5C[Si](C)(C)CN5C(=O)[C@@H](NC(=O)OC)C(C)OC)[nH]4)cc3)cc2)[nH]1)C(C)C (some centres unmarked) [Compound 59] | > 100 nM | > 1 nM | > 100 nM | 0.02 nM | – | – | – | – |
| COC(=O)N[C@@H](Cc1cccc(O)c1)C(=O)N1CCC[C@H]1c1ncc(-c2ccc(-c3ccc(-c4cnc([C@@H]5C[Si](C)(C)CN5C(=O)[C@H](Cc5cccc(O)c5)NC(=O)OC)[nH]4)cc3)cc2)[nH]1 [Compound 26] | 1000 nM | 11.5 nM | 1000 nM | 387 nM | – | – | – | – |
| COC(=O)N[C@H](C(=O)N1C[Si](C)(C)C[C@H]1c1nc(Cl)c(-c2ccc(-c3ccc(-c4[nH]c([C@@H]5C[C@H]6C[C@H]6N5C(=O)[C@@H](NC(=O)OC)C(C)C)nc4F)cc3)cc2)[nH]1)C(C)C [Compound 45] | 66 nM | 0.13 nM | 144 nM | 0.017 nM | – | – | – | – |
| COC(=O)N[C@H](C(=O)N1C[Si](C)(C)C[C@H]1c1ncc(-c2ccc(-c3ccc(-c4cnc([C@@H]5C[C@H]6C[C@H]6N5C(=O)[C@@H](NC(=O)OC)C(C)C)[nH]4)cc3)cc2)[nH]1)C(C)C [Compound 8] | 249 nM | 0.029 nM | > 100 nM | 0.002 nM | – | – | – | – |
| COC(=O)N[C@H](C(=O)N1CCC[C@H]1C(=O)Nc1n[nH]c2ccc(-c3ccc(-c4cnc([C@@H]5C[Si](C)(C)CN5C(=O)[C@@H](NC(=O)OC)C(C)C)[nH]4)cc3)cc12)C(C)C [Compound 79] | > 100 nM | > 1 nM | > 100 nM | > 1 nM | – | – | – | – |
| COC(=O)N[C@H](C(=O)N1CCC[C@H]1c1ncc(-c2ccc(-c3ccc(-c4cnc([C@@H]5C[Si](C)(C)CN5C(=O)[C@@H](NC(=O)OC)[C@@H](C)OC)[nH]4)cc3)cc2)[nH]1)[C@@H](C)OC [Compound 25] | 136 nM | 0.72 nM | 1000 nM | 4.77 nM | – | – | – | – |
| COC(=O)N[C@@H](C)C(=O)N1CCC[C@@H]1c1ncc(-c2ccc(-c3ccc(-c4cnc([C@H]5C[Si](C)(C)CN5C(=O)[C@H](C)NC(=O)OC)[nH]4)cc3)cc2)[nH]1 [Compound 18] | 1000 nM | 988 nM | 1000 nM | 1000 nM | – | – | – | – |
| COC(=O)N[C@H](C(=O)N1CCC[C@@H]1c1ncc(-c2ccc(-c3ccc(-c4cnc([C@H]5C[Si](C)(C)CN5C(=O)[C@@H](NC(=O)OC)c5ccccc5)[nH]4)cc3)cc2)[nH]1)c1ccccc1 [Compound 19] | 999 nM | 25.5 nM | 1000 nM | 11 nM | – | – | – | – |
| CCS(=O)(=O)N1CCC(NC(=O)c2ccc(-c3ccc(-c4cnc([C@@H]5C[Si](C)(C)CN5C(=O)[C@@H](NC(=O)OC)C(C)C)[nH]4)cc3)cc2)CC1 [Compound 75] | > 1000 nM | 159 nM | > 1000 nM | 0.028 nM | – | – | – | – |
| COC(=O)N[C@@H](C)C(=O)N1C[Si](C)(C)C[C@H]1c1nc(Cl)c(-c2ccc(-c3ccc(-c4[nH]c([C@@H]5C[C@H]6C[C@H]6N5C(=O)[C@H](C)NC(=O)OC)nc4Cl)cc3)cc2)[nH]1 [Compound 52] | 57 nM | 0.021 nM | 9.5 nM | 0.007 nM | – | – | – | – |
| COC(=O)N[C@@H](C(=O)N1CCC[C@@H]1c1ncc(-c2ccc(-c3ccc(-c4cnc([C@H]5C[Si](C)(C)CN5C(=O)[C@H](NC(=O)OC)C5CCCOCC5)[nH]4)cc3)cc2)[nH]1)C1CCCOCC1 (some centres unmarked) [Compound 21] | 204 nM | 4.42 nM | 1000 nM | 18.7 nM | – | – | – | – |
| COC(=O)N[C@H](C(=O)N1CCC[C@H]1c1nc(Cl)c(-c2ccc(-c3ccc(-c4[nH]c([C@@H]5C[Si](C)(C)CN5C(=O)[C@@H](NC(=O)OC)C(C)C)nc4Cl)cc3)cc2)[nH]1)C(C)C [Compound 41] | 100 nM | 0.26 nM | 189 nM | 217 nM | – | – | – | – |
| COC(=O)N[C@H](C(=O)N1C[C@H](F)C[C@H]1c1ncc(-c2ccc(C#Cc3ccc(-c4cnc([C@@H]5C[Si](C)(C)CN5C(=O)[C@@H](NC(=O)OC)C(C)C)[nH]4)cc3)cc2)[nH]1)C(C)C [Compound 58] | > 100 nM | > 1 nM | > 100 nM | 0.03 nM | – | – | – | – |
| CCN(CC)[C@@H](C(=O)N1C[Si](C)(C)C[C@H]1c1nc(Cl)c(-c2ccc(-c3ccc(-c4[nH]c([C@@H]5C[C@H]6C[C@H]6N5C(=O)[C@@H](c5ccccc5)N(CC)CC)nc4Cl)cc3)cc2)[nH]1)c1ccccc1 [Compound 55] | 0.16 nM | 0.047 nM | 16.4 nM | 0.019 nM | – | – | – | – |
| COC(=O)NC1(C(=O)N2CCC[C@@H]2c2ncc(-c3ccc(-c4ccc(-c5cnc([C@H]6C[Si](C)(C)CN6C(=O)C6(NC(=O)OC)CC6)[nH]5)cc4)cc3)[nH]2)CC1 [Compound 20] | 1000 nM | 1000 nM | 1000 nM | 1000 nM | – | – | – | – |
| COC(=O)N[C@@H](Cn1cccn1)C(=O)N1CCC[C@H]1c1ncc(-c2ccc(-c3ccc(-c4cnc([C@@H]5C[Si](C)(C)CN5C(=O)[C@H](Cn5cccn5)NC(=O)OC)[nH]4)cc3)cc2)[nH]1 [Compound 29] | 861 nM | 5.32 nM | 1000 nM | 139 nM | – | – | – | – |
| CC[C@H](C)[C@H](NC(=O)OC)C(=O)N1CCC[C@H]1c1ncc(-c2ccc(-c3ccc(-c4cnc([C@@H]5C[Si](C)(C)CN5C(=O)[C@@H](NC(=O)OC)[C@@H](C)CC)[nH]4)cc3)cc2)[nH]1 [Compound 30] | – | – | – | – | 248 nM | 1.33 nM | 610 nM | 7.63 nM |
